One test concerns the target T1, PKC epsilon (Homo sapiens, UniProt Q02156).
T1 construct: purchased Invitrogen P2282
T1 sequence (Q02156 1-737): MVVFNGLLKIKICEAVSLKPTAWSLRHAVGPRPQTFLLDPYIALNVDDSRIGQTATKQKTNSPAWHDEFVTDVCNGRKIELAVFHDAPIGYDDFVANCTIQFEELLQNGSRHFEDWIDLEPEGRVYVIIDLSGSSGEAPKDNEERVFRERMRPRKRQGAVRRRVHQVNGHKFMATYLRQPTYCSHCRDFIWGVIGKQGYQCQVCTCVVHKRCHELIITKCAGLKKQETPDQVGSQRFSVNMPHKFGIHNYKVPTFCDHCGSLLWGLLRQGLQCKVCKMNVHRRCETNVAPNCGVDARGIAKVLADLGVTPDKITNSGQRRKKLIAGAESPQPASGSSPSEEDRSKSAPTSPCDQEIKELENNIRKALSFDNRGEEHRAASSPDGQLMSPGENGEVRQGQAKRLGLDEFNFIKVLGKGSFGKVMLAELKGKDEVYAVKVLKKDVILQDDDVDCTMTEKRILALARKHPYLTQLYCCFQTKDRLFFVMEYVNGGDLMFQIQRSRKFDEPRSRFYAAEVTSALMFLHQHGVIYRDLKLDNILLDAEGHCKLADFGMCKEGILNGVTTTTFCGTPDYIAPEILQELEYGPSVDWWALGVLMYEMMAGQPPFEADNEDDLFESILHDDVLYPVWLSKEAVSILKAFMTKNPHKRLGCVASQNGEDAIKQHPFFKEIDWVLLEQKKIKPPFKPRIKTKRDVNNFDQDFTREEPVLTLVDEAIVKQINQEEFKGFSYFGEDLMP
Description: Biochemical assay for PKC epsilon (fluorescence polarization, Protein Kinase C Assay Kit, Red). The conditions noted are these: read-out: IC50 μM PKCε. Put shortly: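 Read-out was fluorescence-polarization competition between phosphorylated substrate and a rhodamine PKC tracer for an anti-phosphoserine antibody, added with EDTA stop after an 80 min room-temperature kinase reaction with ATP and protein substrate (Mg2+/Ca2+ buffer). Enzyme (10 ng/ml final) was preincubated with compound for 30 min.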

In another test the target is T2, human ROCKα/ROCKII mix (Homo sapiens, UniProt O75116).
T2 construct: purchased Upstate Biotechnology 14-451
Description: Biochemical assay for ROCK (fluorescence polarization, ROCK IMAP Kit). On the technique in general: In fluorescence polarisation assays a small probe gives low polarisation when free and higher when bound to something large.

What is called IC50 is the concentration needed to halve the response being measured.

T2 sequence (O75116 11-552 limits assumed): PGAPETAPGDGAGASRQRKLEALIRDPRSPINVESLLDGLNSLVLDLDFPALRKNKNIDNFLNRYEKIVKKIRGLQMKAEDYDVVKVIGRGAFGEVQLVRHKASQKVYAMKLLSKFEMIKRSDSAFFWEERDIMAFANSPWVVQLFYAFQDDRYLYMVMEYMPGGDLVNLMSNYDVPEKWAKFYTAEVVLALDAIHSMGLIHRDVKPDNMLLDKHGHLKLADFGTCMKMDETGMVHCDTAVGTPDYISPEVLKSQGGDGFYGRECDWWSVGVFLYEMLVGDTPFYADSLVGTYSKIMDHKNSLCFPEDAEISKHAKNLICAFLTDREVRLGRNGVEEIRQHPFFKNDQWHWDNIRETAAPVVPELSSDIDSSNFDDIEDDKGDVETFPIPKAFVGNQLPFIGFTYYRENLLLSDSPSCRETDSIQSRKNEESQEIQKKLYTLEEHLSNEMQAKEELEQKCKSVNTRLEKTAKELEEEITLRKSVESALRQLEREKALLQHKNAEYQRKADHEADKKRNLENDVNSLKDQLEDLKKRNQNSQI

Turning to `CN(CC(N)c1ccc(C(=O)Nc2ccncc2)cc1)C(=O)Cc1ccc(F)cc1Cl` (centres unmarked) [Compound 498, 4-(1-Amino-2-{[2-(2-chloro-4-fluoro-phenyl)-acetyl]-methyl-amino}-ethyl)-N-pyridin-4-yl-benzamide], the IC50 on PKC epsilon was 5 to 50 µM; on human ROCKα/ROCKII mix it was 0.5 to 5 µM.
The matching figures for `CN(CC(N)c1ccc(C(=O)Nc2ccncc2)cc1)C(=O)Cc1cccc(Cl)c1F` (centres unmarked) [Compound 501, 4-(1-Amino-2-{[2-(3-chloro-2-fluoro-phenyl)-acetyl]-methyl-amino}-ethyl)-N-pyridin-4-yl-benzamide]: 5 to 50 µM and 0.5 to 5 µM.
The matching figures for `CN(CC(N)c1ccc(C(=O)Nc2ccncc2)cc1)C(=O)Cc1ccc(Cl)cc1F` (centres unmarked) [Compound 502, 4-(1-Amino-2-{[2-(4-chloro-2-fluoro-phenyl)-acetyl]-methyl-amino}-ethyl)-N-pyridin-4-yl-benzamide]: 5 to 50 µM and 0.5 to 5 µM.
The matching figures for `CN(CC(N)c1ccc(C(=O)Nc2ccncc2)cc1)C(=O)C1(c2ccc(Cl)cc2F)CC1` (centres unmarked) [Compound 504, 4-(1-Amino-2-{[1-(4-chloro-2-fluoro-phenyl)-cyclopropanecarbonyl]-methyl-amino}-ethyl)-N-pyridin-4-yl-benzamide]: 0.5 to 5 µM and 0.5 to 5 µM.
`CN(CC(N)c1ccc(C(=O)Nc2ccncc2)cc1)C(=O)C(C)(C)c1ccc(F)c(Cl)c1` (centres unmarked) [Compound 505, 4-(1-Amino-2-{[2-(3-chloro-4-fluoro-phenyl)-2-methyl-propionyl]-methyl-amino}-ethyl)-N-pyridin-4-yl-benzamide]: the concentration for half-maximal inhibition (IC50) at PKC epsilon lay in the range of 5 to 50 µM; on human ROCKα/ROCKII mix it was 0.5 to 5 µM.
Take `CN(CC(N)c1ccc(C(=O)Nc2ccncc2)cc1)C(=O)C1(c2ccc(F)c(Cl)c2)CC1` (centres unmarked) [Compound 506, 4-(1-Amino-2-{[1-(3-chloro-4-fluoro-phenyl)-cyclopropanecarbonyl]-methyl-amino}-ethyl)-N-pyridin-4-yl-benzamide]: the IC50 at PKC epsilon was in the range of 5 to 50 µM; on human ROCKα/ROCKII mix it was 0.5 to 5 µM.
Taken in the same sequence, the figures for `CN(CC(N)c1ccc(C(=O)Nc2ccncc2)cc1)C(=O)C1CCCc2ccccc21` (centres unmarked) [Compound 512, 1,2,3,4-Tetrahydro-naphthalene-1-carboxylic acid {2-amino-2-[4-(pyridin-4-ylcarbamoyl)-phenyl]-ethyl}-methyl-amide] were 5 to 50 µM and 0.5 to 5 µM.
Regarding `CN(CC(N)c1ccc(C(=O)Nc2ccncc2)cc1)C(=O)C1CCOc2ccc(Cl)cc21` (centres unmarked) [Compound 515, 6-Chloro-chroman-4-carboxylic acid {2-amino-2-[4-(pyridin-4-ylcarbamoyl)-phenyl]-ethyl}-methyl-amide], the IC50 lay within 5 to 50 µM at PKC epsilon and 0.5 to 5 µM at human ROCKα/ROCKII mix.
On to `CN(CC(N)c1ccc(C(=O)Nc2ccncc2)cc1)C(=O)C1CCOc2ccc(F)cc21` (centres unmarked) [Compound 516, 6-Fluoro-chroman-4-carboxylic acid {2-amino-2-[4-(pyridin-4-ylcarbamoyl)-phenyl]-ethyl}-methyl-amide], for which the IC50 was in the range of 5 to 50 µM on PKC epsilon and 0.5 to 5 µM at human ROCKα/ROCKII mix.
Taken in the same sequence, the figures for `CN(CC(N)c1ccc(C(=O)Nc2ccncc2)cc1)C(=O)C1CCSc2ccccc21` (centres unmarked) [Compound 517, Thiochroman-4-carboxylic acid {2-amino-2-{4-(pyridin-4-ylcarbamoyl)-phenyl]-ethyl}-methyl-amide] were 5 to 50 µM and 5 to 50 µM.
The matching figures for `CN(CC(N)c1ccc(C(=O)Nc2ccncc2)cc1)C(=O)C1CCSc2ccc(F)cc21` (centres unmarked) [Compound 518, 6-Fluoro-thiochroman-4-carboxylic acid {2-amino-2-[4-(pyridin-4-ylcarbamoyl)-phenyl]-ethyl}-methyl-amide]: 5 to 50 µM and 5 to 50 µM.
Regarding `CN(CC(N)c1ccc(C(=O)Nc2ccncc2)cc1)C(=O)C1CCCc2sccc21` (centres unmarked) [Compound 520, 4,5,6,7-Tetrahydro-benzo[b]thiophene-4-carboxylic acid {2-amino-2-[4-(pyridin-4-ylcarbamoyl)-phenyl]-ethyl}-methyl-amide], the 50% inhibitory concentration (IC50) on PKC epsilon is 5 to 50 µM; against human ROCKα/ROCKII mix it was 0.5 to 5 µM.
On to `NC(c1ccc(C(=O)Nc2ccncc2)cc1)C1CCCN1C(=O)Cc1ccccc1` (centres unmarked) [Compound 521, 4-[Amino-(1-phenylacetyl-pyrrolidin-2-yl)-methyl]-N-pyridin-4-yl-benzamide], for which the half-inhibitory concentration (IC50) was 0.5 to 5 µM on PKC epsilon and 0.05 to 0.5 µM on human ROCKα/ROCKII mix.
The matching figures for `Cc1cccc(CC(=O)N2CCCC2C(N)c2ccc(C(=O)Nc3ccncc3)cc2)c1` (centres unmarked) [Compound 524, 4-{Amino-[1-(2-m-tolyl-acetyl)-pyrrolidin-2-yl]-methyl}-N-pyridin-4-yl-benzamide]: 5 to 50 µM and 0.5 to 5 µM.
The matching figures for `Cc1ccc(CC(=O)N2CCCC2C(N)c2ccc(C(=O)Nc3ccncc3)cc2)cc1` (centres unmarked) [Compound 525, 4-{Amino-[1-(2-p-tolyl-acetyl)-pyrrolidin-2-yl]-methyl}-N-pyridin-4-yl-benzamide]: 0.5 to 5 µM and 0.5 to 5 µM.
Taken in the same sequence, the figures for `COc1ccccc1CC(=O)N1CCCC1C(N)c1ccc(C(=O)Nc2ccncc2)cc1` (centres unmarked) [Compound 526, 4-(Amino-{1-[2-(2-methoxy-phenyl)-acetyl]-pyrrolidin-2-yl]-methyl}-N-pyridin-4-yl-benzamide] were 5 to 50 µM and 0.5 to 5 µM.
As to `COc1cccc(CC(=O)N2CCCC2C(N)c2ccc(C(=O)Nc3ccncc3)cc2)c1` (centres unmarked) [Compound 527, 4-(Amino-{1-[2-(3-methoxy-phenyl)-acetyl]-pyrrolidin-2-yl}-methyl)-N-pyridin-4-yl-benzamide], the IC50 at PKC epsilon and against human ROCKα/ROCKII mix was 0.5 to 5 µM each time.
`COc1ccc(CC(=O)N2CCCC2C(N)c2ccc(C(=O)Nc3ccncc3)cc2)cc1` (centres unmarked) [Compound 528, 4-(Amino-{1-[2-(4-methoxy-phenyl)-acetyl]-pyrrolidin-2-yl}-methyl)-N-pyridin-4-yl-benzamide]: the IC50 was 0.5 to 5 µM on PKC epsilon and 0.05 to 0.5 µM at human ROCKα/ROCKII mix.
The matching figures for `COc1ccc(C2(C(=O)N3CCCC3C(N)c3ccc(C(=O)Nc4ccncc4)cc3)CC2)cc1` (centres unmarked) [Compound 529, 4-(Amino-{1-[1-(4-methoxy-phenyl)-cyclopropanecarbonyl]-pyrrolidin-2-yl}-methyl)-N-pyridin-4-yl-benzamide]: 0.5 to 5 µM and 0.5 to 5 µM.
The matching figures for `COc1ccc(C2(C(=O)N3CCCC3C(N)c3ccc(C(=O)Nc4ccncc4)cc3)CCCC2)cc1` (centres unmarked) [Compound 530, 4-(Amino-{1-[1-(4-methoxy-phenyl)-cyclopentanecarbonyl]-pyrrolidin-2-yl}-methyl)-N-pyridin-4-yl-benzamide]: 0.5 to 5 µM and 0.5 to 5 µM.
Taken in the same sequence, the figures for `COc1ccc(CC(=O)N2CCCC2C(N)c2ccc(C(=O)Nc3ccncc3)cc2)c(OC)c1` (centres unmarked) [Compound 531, 4-(Amino-{1-[2-(2,4-dimethoxy-phenyl)-acetyl]-pyrrolidin-2-yl}-methyl)-N-pyridin-4-yl-benzamide] were 0.5 to 5 µM and 0.5 to 5 µM.
Consider `COc1cc(CC(=O)N2CCCC2C(N)c2ccc(C(=O)Nc3ccncc3)cc2)cc(OC)c1OC` (centres unmarked) [Compound 532, 4-(Amino-{1-[2-(3,4,5-trimethoxy-phenyl)-acetyl]-pyrrolidin-2-yl}-methyl)-N-pyridin-4-yl-benzamide], for which the values for the IC50 at PKC epsilon and at human ROCKα/ROCKII mix were 5 to 50 µM and 0.5 to 5 µM, respectively.

The values above are taken from patent publication US20100168102A9, “Amide Derivatives as Kinase Inhibitors” (Devgen NV, priority 2005, published 2010).
